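Tested at 5 concentrations; 48 h exposure; 96-well plates; endpoints linearly interpolated, else capped at highest concentration. The concentration for 50% growth inhibition is given as GI50.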 Calls of active or inactive are those of the source. Cut-off read from the data, not from the text of the source: active = GI50 up to about 1.1 µM and inactive = higher.
Experiments:
Assay in all cases: NCI anticancer screen, dose series, 48 h
[1] = system: 786-0
[2] = system: ACHN
[3] = system: BT-549
[4] = system: HCC 2998
[5] = system: HCT-116
[6] = system: HOP-62
[7] = system: KM12
[8] = system: M14
[9] = system: Malme-3M
[10] = system: NCI-H226
[11] = system: OVCAR-3
[12] = system: OVCAR-8
[13] = system: RPMI-8226
[14] = system: RXF 393
[15] = system: SF-295
[16] = system: SK-MEL-28
[17] = system: SK-MEL-5
[18] = system: SK-OV-3
[19] = system: SW-620
[20] = system: A498

Measured: GI50

Cn1c2ccccc2c(=NNc2ccc(S(N)(=O)=O)cc2)c2ccccc21
inactive: [1] 21 µM | [2] 8.05 µM | [3] 8.39 µM | [4] 14.9 µM | [5] 16.7 µM | [6] 15.3 µM | [7] 11.2 µM | [8] 24 µM | [9] 17.9 µM | [10] 10.9 µM | [11] 19.5 µM | [12] 16.2 µM | [13] 9.35 µM | [14] 16.2 µM | [15] 13.6 µM | [16] 18.6 µM | [17] 8.24 µM | [18] 20.2 µM | [19] 21.8 µM

NNC(=O)Cn1ccnn1
inactive: [1] > 100 µM | [2] > 100 µM | [3] > 100 µM | [4] > 100 µM | [6] > 100 µM | [7] > 100 µM | [8] > 100 µM | [9] > 100 µM | [12] > 100 µM | [13] > 100 µM | [15] > 100 µM | [16] > 100 µM | [17] > 100 µM | [19] > 100 µM

Cc1ccc(S(=O)(=O)NC(=O)NC(CC(=O)O)C(=O)O)cc1 (stereo not given)
inactive: [1] > 100 µM | [2] > 100 µM | [3] > 100 µM | [5] > 100 µM | [6] > 100 µM | [7] > 100 µM | [8] > 100 µM | [9] > 100 µM | [12] > 100 µM | [13] > 100 µM | [14] > 100 µM | [15] > 100 µM | [16] > 100 µM | [17] > 100 µM | [18] > 100 µM | [19] > 100 µM

CC(C)Cc1cc(CCC(=O)Nc2ccccc2[N+](=O)[O-])nc(NC#N)n1
inactive: [1] > 100 µM | [20] > 100 µM | [2] > 100 µM | [4] > 100 µM | [5] > 100 µM | [6] > 100 µM | [7] > 100 µM | [8] > 100 µM | [9] > 100 µM | [10] > 100 µM | [11] > 100 µM | [12] > 100 µM | [13] > 100 µM | [14] > 100 µM | [15] > 100 µM | [16] > 100 µM | [17] > 100 µM | [18] > 100 µM | [19] > 100 µM

C=CCCC(CCC=C)(C(=O)O)C(=O)O
inactive: [1] > 100 µM | [2] > 100 µM | [3] > 100 µM | [4] > 100 µM | [5] > 100 µM | [6] > 100 µM | [7] > 100 µM | [8] > 100 µM | [9] > 100 µM | [11] > 100 µM | [12] > 100 µM | [13] > 100 µM | [14] > 100 µM | [15] > 100 µM | [16] > 100 µM | [17] > 100 µM | [19] > 100 µM

CC[C@]1(Cc2ccc(OC)c(OC)c2)C=[N+]([O-])O[C@H](OC2CCCC2(c2ccccc2)c2ccccc2)[C@@H]1OC(=O)c1ccccc1 (stereo not given in full)
inactive: [1] 6.75 µM | [2] 7.83 µM | [3] > 27.1 µM | [4] 9.71 µM | [5] 4.51 µM | [6] 9.89 µM | [7] 3.9 µM | [8] 8.13 µM | [10] 18 µM | [11] 3.15 µM | [12] 3.71 µM | [14] 4.35 µM | [15] 14.1 µM | [16] 20.8 µM | [17] 4.37 µM | [18] > 47.9 µM | [19] 8.87 µM

CCCNC(=S)N/N=C1\C(=O)Nc2ccccc21
inactive: [1] > 100 µM | [20] > 100 µM | [2] > 100 µM | [4] > 100 µM | [5] > 100 µM | [6] > 100 µM | [7] > 100 µM | [8] > 100 µM | [9] > 100 µM | [10] > 100 µM | [11] > 100 µM | [12] > 100 µM | [13] > 100 µM | [14] > 100 µM | [15] > 100 µM | [16] > 100 µM | [17] > 100 µM | [18] > 100 µM | [19] > 100 µM

NNC(=O)c1ccc(-n2nnc(C(=O)NN)c2C(=O)NN)cc1
inactive: [1] > 100 µM | [2] > 100 µM | [3] > 100 µM | [4] > 100 µM | [5] > 100 µM | [6] > 100 µM | [7] > 100 µM | [8] > 100 µM | [9] > 100 µM | [11] > 100 µM | [12] > 100 µM | [13] > 100 µM | [15] > 100 µM | [16] > 100 µM | [17] > 100 µM

Cc1ccc(/C=C/C(=O)CCN(C)C)cc1
inactive: [1] 17.9 µM | [20] > 100 µM | [2] 18.5 µM | [4] 17.7 µM | [5] 18.9 µM | [6] 54.5 µM | [7] 4.62 µM | [8] 21.5 µM | [9] 20.7 µM | [10] 19.2 µM | [11] 20.3 µM | [12] 15.9 µM | [13] 19.3 µM | [14] 23.1 µM | [15] 33 µM | [16] 19.4 µM | [17] 19.4 µM | [18] 45 µM | [19] 16.6 µM

N#CCc1nc(-c2cc3c(ccc4ccccc43)oc2=O)cs1
inactive: [1] 22.2 µM | [2] 27.5 µM | [3] 17.1 µM | [4] 69.3 µM | [5] 54.3 µM | [6] 16.7 µM | [7] 33.6 µM | [8] 99.1 µM | [9] > 100 µM | [10] 24.7 µM | [12] 28.5 µM | [13] > 100 µM | [14] 23.4 µM | [15] 26.7 µM | [16] 72.6 µM | [17] 69.3 µM | [18] 30.3 µM | [19] 91.8 µM

CC(=O)CSc1c(-c2ccccc2)c(=O)n(-c2ccccc2)c(=S)n1-c1ccccc1
inactive: [1] > 100 µM | [2] > 100 µM | [3] > 100 µM | [5] > 100 µM | [6] > 100 µM | [7] > 100 µM | [8] > 100 µM | [9] > 100 µM | [10] > 100 µM | [11] > 100 µM | [12] > 100 µM | [13] > 100 µM | [15] > 100 µM | [16] > 100 µM | [17] > 100 µM | [18] > 100 µM | [19] > 100 µM

— ChEMBL document CHEMBL1201862, “PubChem BioAssay data set” (2004)
